The values below come from PMC5580238 (ACS chemical neuroscience, 2016).

Entries after “also recorded” stand apart in the source; their conditions may differ. Read-outs that look alike come from different tables or passages of the source.

The target in data set [1] is T807 site in AD brain tissue homogenates (NFTs) (Homo sapiens, UniProt P10636). The format is binding. The conditions noted are these: for Inhibition of specific binding of [3H]T807 to AD brain tissue homogenate: compound at 1 μM concentration.
The target in data set [2] is PIB site in AD brain tissue homogenates (thioflavin-T binding site on β-amyloid plaques) (Homo sapiens, UniProt P05067).
The target in data set [3] is THK-523 site in AD brain tissue homogenates (NFTs) (Homo sapiens, UniProt P10636). Type of data set: binding. As to conditions: for Inhibition of specific binding of [3H]THK-523 to AD brain tissue homogenate: compound at 1 μM concentration; for Ki: Ki with [3H]THK-523 as reference radioligand.
A short description of data set [4]: Ligand solubility in binding assay media. As to conditions: in water or PBS. The format is physicochemical.
Another data set has as its target AD brain homogenate (Homo sapiens, UniProt P10636). Nature of the data set: Titration. Type of data set: binding. As to conditions: titration with [18F]THK-523 plus THK-523; curve fit.

PIB site in AD brain tissue homogenates (thioflavin-T binding site on β-amyloid plaques), sequence (P05067 672-711 limits assumed): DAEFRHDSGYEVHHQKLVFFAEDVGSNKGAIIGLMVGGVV
T807 site in AD brain tissue homogenates (NFTs), sequence (P10636 623-708 limits assumed): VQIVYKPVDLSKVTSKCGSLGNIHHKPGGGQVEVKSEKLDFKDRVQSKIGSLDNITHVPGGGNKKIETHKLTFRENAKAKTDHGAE
THK-523 site in AD brain tissue homogenates (NFTs), sequence (P10636 623-708 limits assumed): as above
AD brain homogenate, sequence (P10636 2-758): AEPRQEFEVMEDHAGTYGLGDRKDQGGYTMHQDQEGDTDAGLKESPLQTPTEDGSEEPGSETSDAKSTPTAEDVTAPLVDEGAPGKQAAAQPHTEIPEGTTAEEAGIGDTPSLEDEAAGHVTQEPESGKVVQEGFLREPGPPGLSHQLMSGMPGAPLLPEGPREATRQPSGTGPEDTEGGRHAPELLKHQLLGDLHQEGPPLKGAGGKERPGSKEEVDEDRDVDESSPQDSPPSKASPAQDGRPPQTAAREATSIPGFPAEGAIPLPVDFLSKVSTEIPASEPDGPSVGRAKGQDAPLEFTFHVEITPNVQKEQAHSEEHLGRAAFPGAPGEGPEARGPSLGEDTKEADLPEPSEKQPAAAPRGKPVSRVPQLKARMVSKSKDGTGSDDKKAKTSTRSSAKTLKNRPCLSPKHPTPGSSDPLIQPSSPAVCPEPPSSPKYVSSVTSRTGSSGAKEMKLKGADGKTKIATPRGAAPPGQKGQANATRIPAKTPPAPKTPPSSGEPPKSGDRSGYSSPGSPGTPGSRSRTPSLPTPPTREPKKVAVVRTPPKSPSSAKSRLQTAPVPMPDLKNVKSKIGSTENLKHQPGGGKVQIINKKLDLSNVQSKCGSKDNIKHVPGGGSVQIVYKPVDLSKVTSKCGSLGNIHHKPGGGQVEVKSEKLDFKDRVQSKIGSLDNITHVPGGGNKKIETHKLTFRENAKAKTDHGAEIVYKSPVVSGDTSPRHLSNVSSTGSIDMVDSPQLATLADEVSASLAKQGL

Usually Ki stands for the equilibrium dissociation constant of an inhibitor or competing ligand from its target. A high value points to a looser hold on the target. On to `Nc1ccc(-c2ccc3cc(OCCOCCF)ccc3n2)cc1` [10b, 4-(6-(2-(2-Fluoroethoxy)ethoxy)quinolin-2-yl)aniline], for which the Ki in data set [1] and in data set [2] was more than 1000 nM each time.

As to `Nc1ccc(-c2ccc3cc(OCCOCCOCCF)ccc3n2)cc1` [10c, 4-(6-(2-(2-(2-Fluoroethoxy)ethoxy)ethoxy)quinolin-2-yl)aniline], the Ki in data set [1] and in data set [2] was more than 1000 nM each time.

Consider `Nc1ccc(-c2ccc3cc(OCCOCCOCCOCCF)ccc3n2)cc1` [10d, 4-(6-(2-(2-(2-(2-Fluoroethoxy)ethoxy)ethoxy)ethoxy)quinolin-2-yl)aniline], for which the Ki in data set [1] and in data set [2] was more than 1000 nM in each case.

For the compound `Nc1ccc(-c2ccc3cc(OCCOCCOCCOCCOCCF)ccc3n2)cc1` [10e, 4-(6-((14-Fluoro-3,6,9,12-tetraoxatetradecyl)oxy)quinolin-2-yl)-aniline], the inhibitory constant (Ki) in data set [2] was 43 ± 39 nM.

Compound `Nc1ccc(-c2ccc3cc(OCCOCCOCCOCCOCCOCCF)ccc3n2)cc1` [10f, 4-(6-((17-Fluoro-3,6,9,12,15-pentaoxaheptadecyl)oxy)quinolin-2-yl)aniline] showed an inhibitory constant (Ki) in data set [2] of more than 500 nM.

In the case of `Nc1ccc(-c2ccc3cc(OCCOCCN4CCOC4=O)ccc3n2)cc1` [12c, 3-(2-(2-((2-(4-Aminophenyl)quinolin-6-yl)oxy)ethoxy)ethyl)-oxazolidin-2-one], the Ki in data set [1] and in data set [2] was more than 1000 nM each time.

Consider `Nc1ccc(-c2ccc3cc(OCCOCCNCCO)ccc3n2)cc1` [12f, 2-((2-(2-((2-(4-Aminophenyl)quinolin-6-yl)oxy)ethoxy)ethyl)-amino)ethan-1-ol], for which the Ki in data set [1] and in data set [2] was more than 1000 nM throughout.

As to `Fc1ccc(-c2ccc3c(c2)[nH]c2ccncc23)cn1` [T807], in data set [1], the “Inhibition of specific binding of [3H]T807 to AD brain tissue homogenate” value is “full inhibition”. For the same compound, the “Inhibition of specific binding of [3H]THK-523 to AD brain tissue homogenate” value in data set [3] (1 µM) is “failed to inhibit; also recorded: very low inhibition”.

In the case of `Nc1ccc(-c2ccc3cc(OCCF)ccc3n2)cc1` [THK-523, 4-(6-(2-Fluoroethoxy)quinolin-2-yl)aniline], the Ki is 425 ± 383 nM in data set [1]; 28 ± 6 nM in data set [3] (20% ethanol wash); 52 ± 14 nM in data set [3] (Tris-buffer (pH 7.2) wash); 45 ± 12 nM in data set [3] (neat ethanol wash); more than 1000 nM in data set [2]. Also, the “Inhibition of specific binding of [3H]T807 to AD brain tissue homogenate” value in data set [1] (1 µM) is given as “failed to inhibit”; in data set [1] (listed as THK-523 (10a), 1 µM) it was “very low inhibition”. Further, the “Inhibition of specific binding of [3H]THK-523 to AD brain tissue homogenate” value in data set [3] is listed as “full inhibition”. Besides, in data set [4], the Solubility result is reported as “insoluble”.

As for `Nc1ccc(-c2ccc3cc(OCCF)ccc3n2)cc1` [[^18F]THK-523], at AD brain homogenate, the “Bmax (concentration of maximal binding sites)” value worked out at 1639 ± 235 dpm and the “NS (coefficient of nonspecific binding)” value is 169 ± 3.
